# Assay results: ChEMBL document CHEMBL3044813, “Bloodbrain barrier permeability and transport studies of JLK1486: a new antiglioblastoma drug” (Med Chem Res, 2012)
# Activity calls are given as the source filed them. No cut-off for these calls is given here.
# Columns and labels:
# [1] = target: T1, ATP-dependent translocase ABCB1 (Homo sapiens, UniProt P08183); experiment: Modulation of P-gp ATPase activity (unknown origin) at 1 uM by spectrophotometry (RvB = 30.2 nmol/mg/min)
# Cerebrospinal fluid = experiment: Drug uptake in Rattus norvegicus Sprague-Dawley (rat) CSF at 10 mg/kg, iv after 1 hr by HPLC analysis; assay type: ADME, organism-based; design: dose 10 mg/kg, route intravenous; details: in vivo
# [2] = target: T1, ATP-dependent translocase ABCB1; experiment: Inhibition of Vinblastine-induced P-gp ATPase activity (unknown origin) at 10 uM by spectrophotometry (reference value: 42.8 nmol/mg/min)
# [3] = target: T1, ATP-dependent translocase ABCB1; experiment: Inhibition of Progesterone-induced P-gp ATPase activity (unknown origin) at 10 uM by spectrophotometry (reference value: 61.5 nmol/mg/min)
# [4] = target: T1, ATP-dependent translocase ABCB1; experiment: Inhibition of Verapamil-induced P-gp ATPase activity (unknown origin) at 1 uM by spectrophotometry (reference value: 90.7 nmol/mg/min)
# Glioma = experiment: Antitumor activity against Homo sapiens (human) Glioma cells xenografted in transgenic mouse assessed as mouse survival; assay type: functional, cell-based
# [5] = target: T1, ATP-dependent translocase ABCB1; experiment: Inhibition of Verapamil-induced P-gp ATPase activity (unknown origin) at 10 uM by spectrophotometry (reference value: 90.7 nmol/mg/min)
# Brain = experiment: Drug uptake in Rattus norvegicus Sprague-Dawley (rat) brain at 10 mg/kg, iv by HPLC analysis; assay type: ADME, organism-based; design: dose 10 mg/kg, route intravenous; details: in vivo
# [6] = target: T1, ATP-dependent translocase ABCB1; experiment: Inhibition of Progesterone-induced P-gp ATPase activity (unknown origin) at 1 uM by spectrophotometry (reference value: 61.5 nmol/mg/min)
# [7] = target: T1, ATP-dependent translocase ABCB1; experiment: Modulation of P-gp ATPase activity (unknown origin) at 10 uM by spectrophotometry (RvB = 30.2 nmol/mg/min)
# [8] = target: T1, ATP-dependent translocase ABCB1; experiment: Inhibition of Vinblastine-induced P-gp ATPase activity (unknown origin) at 1 uM by spectrophotometry (reference value: 42.8 nmol/mg/min)
# Blood brain barrier = experiment: Permeability across blood brain barrier of Rattus norvegicus Sprague-Dawley (rat) at 10 mg/kg, iv; assay type: ADME, organism-based; design: dose 10 mg/kg, route intravenous; details: in vivo
# T1 sequence (P08183 whole entry): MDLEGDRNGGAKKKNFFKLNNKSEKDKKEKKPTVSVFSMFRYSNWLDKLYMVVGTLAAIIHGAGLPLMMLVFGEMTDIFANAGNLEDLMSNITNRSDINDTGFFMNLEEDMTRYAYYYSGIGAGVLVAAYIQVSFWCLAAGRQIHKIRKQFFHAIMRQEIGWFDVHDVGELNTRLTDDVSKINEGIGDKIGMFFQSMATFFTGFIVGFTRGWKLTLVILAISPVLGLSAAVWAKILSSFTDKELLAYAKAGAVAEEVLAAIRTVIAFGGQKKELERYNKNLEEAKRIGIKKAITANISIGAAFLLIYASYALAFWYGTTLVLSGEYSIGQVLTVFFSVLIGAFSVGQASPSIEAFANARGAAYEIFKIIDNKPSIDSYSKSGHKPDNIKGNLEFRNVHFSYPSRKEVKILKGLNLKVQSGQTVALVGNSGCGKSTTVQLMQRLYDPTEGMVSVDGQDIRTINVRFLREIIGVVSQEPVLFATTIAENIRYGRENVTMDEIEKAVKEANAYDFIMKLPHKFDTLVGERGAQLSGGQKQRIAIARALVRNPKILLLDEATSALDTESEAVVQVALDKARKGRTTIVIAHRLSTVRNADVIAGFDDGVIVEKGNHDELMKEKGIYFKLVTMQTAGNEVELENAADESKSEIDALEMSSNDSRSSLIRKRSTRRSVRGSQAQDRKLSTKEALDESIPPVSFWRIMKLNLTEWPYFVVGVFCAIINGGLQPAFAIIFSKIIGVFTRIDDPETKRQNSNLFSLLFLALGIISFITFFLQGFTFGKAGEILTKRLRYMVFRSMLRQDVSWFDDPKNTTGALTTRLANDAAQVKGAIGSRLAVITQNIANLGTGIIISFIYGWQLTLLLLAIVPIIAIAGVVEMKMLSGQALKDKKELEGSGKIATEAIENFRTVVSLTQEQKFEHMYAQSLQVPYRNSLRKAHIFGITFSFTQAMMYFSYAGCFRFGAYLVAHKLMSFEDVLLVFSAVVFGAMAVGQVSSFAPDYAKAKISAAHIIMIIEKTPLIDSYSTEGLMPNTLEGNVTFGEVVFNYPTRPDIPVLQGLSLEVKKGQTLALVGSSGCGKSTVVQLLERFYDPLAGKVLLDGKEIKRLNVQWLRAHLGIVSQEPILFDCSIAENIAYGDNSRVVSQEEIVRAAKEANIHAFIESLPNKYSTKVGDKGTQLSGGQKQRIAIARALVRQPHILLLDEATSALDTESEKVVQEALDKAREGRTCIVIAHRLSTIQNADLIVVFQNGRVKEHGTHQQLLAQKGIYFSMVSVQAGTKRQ
Activity [1],Drug uptake (Cerebrospinal fluid),Activity [2],Activity [3],Activity [4],Activity [5],Drug uptake (Brain),Activity [6],Activity [7],Activity [8],pBBB (Blood brain barrier),SMILES,Activity (Glioma)
31.3 nmol/mg/min,0.037%,30.8 nmol/mg/min,51.8 nmol/mg/min,84.5 nmol/mg/min,77.1 nmol/mg/min,2.2%,54.8 nmol/mg/min,33.1 nmol/mg/min,34.3 nmol/mg/min,,Oc1ccc(CN(Cc2ccc(C(F)(F)F)cc2)Cc2ccc(O)c3ncccc23)c2cccnc12,Active
,,,,,,,,,,2.7 ×10⁻³ cm/s,Cn1nnc2c(C(N)=O)ncn2c1=O [TEMOZOLOMIDE],Active
